Values joined by “and” are separate entries in the source; they are usually repeats but may differ in a detail not shown here. Equal values may be shown once. Read-outs that look alike come from different tables or passages of the source. *1 amine or outer side, *2 acyl side, *3 side chain or, on linkers, in order; H or OH if unused. Where a SMILES comes first, the peptide text is derived from it. Where no end group is shown, it is not given here. [ ]: non-standard residue; d: D form. The star is where a group is joined. ξ: configuration not given here. ξGly(4-Pip(1-amidino)) = N=C(N)N1CCC(C(N)C(=O)O)CC1; X4 = O=C([C@H](Cc1cccc2[nH]ncc12)N[*:1])[*:2]; Ala(4-thiazolyl) = N[C@@H](Cc1cscn1)C(=O)O; X3 = Nc1nc(C[C@H](N[*:1])C(=O)[*:2])c[nH]1; Dab(CONH2) = NC(=O)NCC[C@H](N)C(=O)O; NH(CH2CH2O)4Me = COCCOCCOCCOCCN*; hCit = NC(=O)NCCCC[C@H](N)C(=O)O; Tic = O=C(O)[C@@H]1Cc2ccccc2CN1; Cit = NC(=O)NCCC[C@H](N)C(=O)O; Chg = N[C@H](C(=O)O)C1CCCCC1; NHPhenethyl = c1ccc(CCN*)cc1; NHCH2CH2OMe = COCCN*; βAla = NCCC(=O)O; Sar = CNCC(=O)O
Key:
[1] = test system: Goodpasture antigen (α3(IV)NC1); settings: Huynh et al. 2019; cited from earlier work
[2] = Mouse pharmacokinetics/metabolism study; format: in vivo, C57BL/6J mice
Experimental: The pharmacokinetics/metabolism study was performed in non-fasted C57BL/6J mice. Dose formulation was prepared on the day of treatment, using 10% v/v DMSO solution and 90% sterile water for injection as vehicle. Blood samples were collected at 0.25, 0.5, 1, 2, 4, 6, 8, 12 and 24 hr post-dose (n=9 mice/group, staggered sampling with 3 mice/time point). At each time point, under isoflurane anesthesia approximately 70 μL of blood was collected through retro orbital plexus puncture and transferred into a pre-labeled tube. 50 μL of blood was taken from the prelabeled tube and it was added into a labelled tube containing 200 μL of acetonitrile to precipitate proteins. Immediately, blood samples were vortexed to facilitate mixing of acetonitrile with the blood. Samples were kept on dry ice at −70° C. until analysis. [table] Bioanalysis was performed using fit-for-purpose analytical method using LC-MS/MS method for the quantification of PV-267 (Parent) or PV-3212 (Parent) and PV-623 (Metabolite) in mice blood samples and the linearity range was 2 to 2500 ng/mL for PV-267 (Parent), PV-3212 (Parent) and PV-623 (metabolite). The blood pharmacokinetic parameters for PV-267 and PV-3212 were calculated by using standard non-compartmental analysis (Phoenix software, version 6.4, Pharsight Corporation, Mountain View, Calif. 94040/USA) using the sparse sampling model and linear trapezoidal with linear interpolation calculation method. Pharmacokinetic Parameters for PV-623 (metabolite) were not calculated due to insufficient blood concentrations.

HLA-DRB1*15:01 = biological target: T1, HLA-DRB1*15:01 (Homo sapiens, UniProt P01903+P01911); assay: HLA II binding assay (competitive, biotinylated reference peptide)
T1 construct: endogenous in cells; host or cells: EBV homozygous cell lines (human)

[3] = test system: EAE in DRB1*15:01 transgenic mice; settings: cited from earlier work
[4] = Pharmacokinetics of PV-267 in rats and mice
[5] = test system: BC3 T cells + autologous hPBMCs from DRB1*15:01-positive MS patient; assay: Human cellular immunology assay (IFN-gamma ELISPOT); format: cell-based; settings: inhibition of IFN-gamma response, FIG. 2
Experimental: After washing and blocking, autologous APCs (irradiated PBMCs) pretreated with different concentrations of the DRB1*15:01 inhibitors for 45 min were added on the plate (0.3−0.5×10^6 cells per well), followed by the addition of Ag or positive control using PHA (Sigma-Aldrich) or anti-human CD3 mAb (Bio X Cell; OKT3) along with BC3 T cells or enriched PBMC T cells (4,000-20,000 cells per well). Plates were incubated at 37° C. for 24 h, then washed and biotinylated anti-human IFN-γ mAb (Thermo Scientific; B133.5) was added at 4° C., overnight. After that, plates were incubated with Streptavidin AP (Invitrogen) and developed with BCIP/NBT Phosphatase substrate (KPL) after washing. After developing of the plates, image analysis of ELISPOT assays was performed on a Series 2 ImmunoSpot analyzer and software (CTL) as described previously (Kawamura, K., et al., (2008) J. Immunol. 181: 3202-3211).

[6] = Table 2, DRB1*15:01 binding, unit inferred, nM, read-out: Avg IC50
[7] = C57BL/6J, mouse, in vivo, ip, 10 mg/kg

CC(=O)N[C@H](C(=O)N[C@H](C(=O)N[C@@H](CCCNC(=N)N)C(=O)N1Cc2ccccc2C[C@H]1C(=O)N[C@@H](Cc1ccccc1)C(N)=O)C1CCCCC1)C(C)C [PV-267, Ac-V-(Chg)-R-(Tic)-F—NH2] (Ac-V[Chg]R[Tic]F-NH2)
autoreactivity to the Goodpasture antigen [1]: attenuates autoreactivity to the Goodpasture antigen
ratio of metabolite PV-623 to parent at 0.25 hr ([2]; 10 mg/kg IP, 0.25 hr): 0.61 and 0.67
ratio of metabolite PV-623 to parent at 0.5 hr ([2]; 10 mg/kg IP, 0.5 hr): 0.73
level at 0.25 h ([2]; C57BL/6J, mouse, plasma, ip, 10 mg/kg, parent, text b45, 0.25 hr, read-out: plasma concentration at 0.25 hr): 275 ng/mL
level at 0.5 h ([2]; C57BL/6J, mouse, plasma, ip, 10 mg/kg, parent, text b45, 0.5 hr, read-out: plasma concentration at 0.5 hr): 91.5 ng/mL
Cmax ([2]; C57BL/6J, mouse, whole blood, single IP 10 mg/kg, observed at 0.25 hr post dose, read-out: Parent peak blood concentration): 275 ng/mL
metabolism to the acid PV-623 ([2]; mouse PK studies): rapidly metabolized to PV-623
Mean Plasma Concentration 0.25 hr ([2]; parent compound, 10 mg/kg IP, 0.25 hr): 275 ng/mL
Mean Plasma Concentration 0.5 hr ([2]; parent compound, 10 mg/kg IP, 0.5 hr): 91.5 ng/mL
IC50 (HLA-DRB1*15:01; read-out: binding IC50): 2.5 nM
efficacy in animal models of multiple sclerosis [3]: efficacy in animal models of multiple sclerosis
in vivo conversion to C-terminal acid PV-623 [4]: significantly converted to the C-terminal acid PV-623

CC(=O)N[C@H](C(=O)N[C@H](C(=O)N[C@@H](CCCNC(=N)N)C(=O)N1Cc2ccccc2C[C@H]1C(=O)N[C@@H](Cc1ccccc1)C(=O)O)C1CCCCC1)C(C)C [PV-623, Ac-V-(Chg)-R-(Tic)-F—OH] (Ac-V[Chg]R[Tic]F-OH)
Mean Plasma Concentration 0.25 hr ([2]; acid metabolite PV-623 after PV-267 10 mg/kg IP, 0.25 hr): 169 ng/mL
Mean Plasma Concentration 0.5 hr ([2]; acid metabolite PV-623 after PV-267 10 mg/kg IP, 0.5 hr): 65.3 ng/mL
Mean Plasma Concentration 0.25 hr ([2]; acid metabolite PV-623 after PV-3212 10 mg/kg IP, 0.25 hr): 8.54 ng/mL
Mean Plasma Concentration 0.5 hr ([2]; acid metabolite PV-623 after PV-3212 10 mg/kg IP, 0.5 hr): 3.57 ng/mL
IC50 (HLA-DRB1*15:01; [6]): 26 nM

CC(C)[C@H](NC(=O)CCN)C(=O)N[C@H](C(=O)N[C@@H](CCCNC(=N)N)C(=O)N1Cc2ccccc2C[C@H]1C(=O)N[C@@H](Cc1ccccc1)C(N)=O)C1CCCCC1 [PV-638] (H-[βAla]V[Chg]R[Tic]F-NH2)
IC50 (HLA-DRB1*15:01; [6]): 2 nM

CC(=O)N[C@H](C(=O)N[C@H](C(=O)N[C@@H](CCCCNC(N)=O)C(=O)N1Cc2ccccc2C[C@H]1C(=O)N[C@@H](Cc1ccccc1)C(N)=O)C1CCCCC1)C(C)C [PV-640] (Ac-V[Chg][hCit][Tic]F-NH2)
IC50 (HLA-DRB1*15:01; [6]): 7 nM

CC(=O)N[C@H](C(=O)N[C@H](C(=O)N[C@@H](CCNC(N)=O)C(=O)N1Cc2ccccc2C[C@H]1C(=O)N[C@@H](Cc1ccccc1)C(N)=O)C1CCCCC1)C(C)C [PV-642] (Ac-V[Chg][Dab(CONH2)][Tic]F-NH2)
IC50 (HLA-DRB1*15:01; [6]): 4 nM

CC(C)[C@H](NC(=O)CN)C(=O)N[C@H](C(=O)N[C@@H](CCCNC(N)=O)C(=O)N1Cc2ccccc2C[C@H]1C(=O)N[C@@H](Cc1ccccc1)C(N)=O)C1CCCCC1 [PV-661] (H-GV[Chg][Cit][Tic]F-NH2)
IC50 (HLA-DRB1*15:01; [6]): 5 nM

CNCC(=O)N[C@H](C(=O)N[C@H](C(=O)N[C@@H](CCCNC(N)=O)C(=O)N1Cc2ccccc2C[C@H]1C(=O)N[C@@H](Cc1ccccc1)C(N)=O)C1CCCCC1)C(C)C [PV-662] (H-[Sar]V[Chg][Cit][Tic]F-NH2)
IC50 (HLA-DRB1*15:01; [6]): 4 nM

CC(C)[C@H](NC(=O)CCN)C(=O)N[C@H](C(=O)N[C@@H](CCCNC(N)=O)C(=O)N1Cc2ccccc2C[C@H]1C(=O)N[C@@H](Cc1ccccc1)C(N)=O)C1CCCCC1 [PV-664] (H-[βAla]V[Chg][Cit][Tic]F-NH2)
IC50 (HLA-DRB1*15:01; [6]): 2 nM

CC(=O)N[C@H](C(=O)N[C@H](C(=O)N[C@@H](CCCNC(=N)N)C(=O)N1Cc2ccccc2C[C@H]1C(=O)N[C@@H](Cc1cccc2[nH]ncc12)C(N)=O)C1CCCCC1)C(C)C [PV-676] (Ac-V[Chg]R[Tic][X4]-NH2)
IC50 (HLA-DRB1*15:01; [6]): 3 nM

CC(=O)N[C@H](C(=O)N[C@H](C(=O)N[C@@H](CCCNC(=N)N)C(=O)N1Cc2ccccc2C[C@H]1C(=O)NCCc1ccccc1)C1CCCCC1)C(C)C [PV-708, reference compound] (Ac-V[Chg]R[Tic]-NHPhenethyl)
IC50 (HLA-DRB1*15:01; [6]): 464 nM

CC(C)[C@H](NC(=O)CCN)C(=O)N[C@H](C(=O)N[C@@H](Cc1ccccc1)C(=O)N[C@@H](Cc1ccccc1)C(=O)N[C@@H](Cc1ccccc1)C(N)=O)C1CCCCC1 [PV-782] (H-[βAla]V[Chg]FFF-NH2)
IC50 (HLA-DRB1*15:01; [6]): 150 nM

CC(=O)N[C@H](C(=O)N[C@H](C(=O)NC(C(=O)N1Cc2ccccc2C[C@H]1C(=O)N[C@@H](Cc1ccccc1)C(N)=O)C1CCN(C(=N)N)CC1)C1CCCCC1)C(C)C (stereo partly shown) [PV-810] (Ac-V[Chg][ξGly(4-Pip(1-amidino))][Tic]F-NH2)
IC50 (HLA-DRB1*15:01; [6]): 6 nM

CC(C)[C@H](NC(=O)CCN)C(=O)N[C@H](C(=O)N[C@@H](Cc1cscn1)C(=O)N1Cc2ccccc2C[C@H]1C(=O)N[C@@H](Cc1ccccc1)C(N)=O)C1CCCCC1 [PV-833] (H-[βAla]V[Chg][Ala(4-thiazolyl)][Tic]F-NH2)
IC50 (HLA-DRB1*15:01; [6]): 17 nM

CC(=O)N[C@H](C(=O)N[C@H](C(=O)N[C@@H](Cc1c[nH]c(N)n1)C(=O)N1Cc2ccccc2C[C@H]1C(=O)N[C@@H](Cc1ccccc1)C(N)=O)C1CCCCC1)C(C)C [PV-839] (Ac-V[Chg][X3][Tic]F-NH2)
IC50 (HLA-DRB1*15:01; [6]): 25 nM

COCCNC(=O)[C@H](Cc1ccccc1)NC(=O)[C@@H]1Cc2ccccc2CN1C(=O)[C@H](CCCNC(=N)N)NC(=O)[C@@H](NC(=O)[C@@H](NC(C)=O)C(C)C)C1CCCCC1 [PV-3212, Ac-V-(Chg)-R-(Tic)-F—NH(CH2CH2O)1CH3] (Ac-V[Chg]R[Tic]F-NHCH2CH2OMe)
Cmax [2, 7]: 741 ng/mL
half-life [2, 7]: 3.23 h
level at 0.25 h [2, 7]: 741 ng/mL
level at 0.5 h [2, 7]: 195 ng/mL
metabolism to the acid PV-623 ([2]; mouse, in vivo): remarkably stable
Mean Plasma Concentration 0.25 hr ([2]; mouse, in vivo, ip, 10 mg/kg): 741 ng/mL
Mean Plasma Concentration 0.5 hr ([2]; mouse, in vivo, ip, 10 mg/kg): 195 ng/mL
potency compared to PV-267 in human cellular assay [5]: more potent than the simple amide (PV-267)

COCCOCCOCCOCCNC(=O)[C@H](Cc1ccccc1)NC(=O)[C@@H]1Cc2ccccc2CN1C(=O)[C@H](CCCNC(=N)N)NC(=O)[C@@H](NC(=O)[C@@H](NC(C)=O)C(C)C)C1CCCCC1 [PV-3213, Ac-V-(Chg)-R-(Tic)-F—NH(CH2CH2O)4CH3] (Ac-V[Chg]R[Tic]F-{NH(CH2CH2O)4Me})
potency compared to PV-267 in human cellular assay [5]: at least as potent as the unsubstituted PV-267

Ac-VVRFF-NH2 [PV-73, reference compound]
IC50 (HLA-DRB1*15:01; [6]): 2370 nM

EAEQLRRAYLDGTGVE [A3 152-166, reference compound]
IC50 (HLA-DRB1*15:01; reference peptide, DRB1*1501, read-out: IC50): 14 nM

Reference: patent publication US20240158439A1, “INHIBITORS OF ANTIGEN PRESENTATION BY MHC CLASS II HLA-DRB1*15:01 MOLECULES WITH ENHANCED METABOLIC STABILITY” (Provid Pharmaceuticals Inc., priority 2021, published 2024)
